According to patent US10925282B2, “Enhanced kill of microorganisms” (CONOCOPHILLIPS COMPANY, priority 2017, dated 2021):
Read-outs that look alike come from different tables or passages of the source.

Tests used:
[1] = system: Barnett sulfate reducing bacteria (SRB) culture
[2] = system: freshwater denitrifying culture; conditions: 20 mM; 30-minute exposure; cited from earlier work
[3] = 1 mM nitrite, approximately 24 hours

SMILES | cATP concentration [1, 3] | reduction in cATP concentrations [1, 3] [%] | time required to reach a cATP concentration below 1000 picograms per mL ([1]; 1 mM nitrite, initial microbial equivalency 1.0×10^7 cells/mL, 30° C.) | reduction in cATP concentrations ([1]; 2 mM nitrite, same time period (approximately 24 hours)) [%] | reduction of ATP levels [2] [%]
O=NO [nitrite] | below 1000 picograms per mL | > 90 | Approximately 24 hours | > 99 | 
[O]=[W](=[O])([O-])[O-] [tungstate] |  |  |  |  | 41
